Marks after values point to notes of the source that are not given here. Positions of bridges follow the written chain, without caps; N, C: chain ends. Residues, ends and D or L forms follow the SMILES beside them. No end group written: not given here.

For one data set, the target named is T1, recombinant human uPAR (Homo sapiens, UniProt Q03405).
T1 construct: made in house; host or cells: CHO cells
As to the kind of experiment: Microtitre plate solid phase ATF-ligand binding test. The note with it: 0.6 ng ATF together with 15 μg synthetic peptide per ml; FIG. 2. On the procedure: In addition to the flow cytometric analyses, a solid phase ATF-ligand binding test was carried out in order to examine the interactions of synthetic peptides with the uPAR. For this microtitre plates were coated with recombinant human uPAR from CHO cells (Wilhelm et al., FEBS Lett. 337 (1994), 131-134; Magdolen et al., Electrophoresis 16 (1995), 813-816) and the remaining protein-binding sites were saturated with 2% BSA (weight/vol). After incubation with the samples (0.6 ng ATF together with 15 μg synthetic peptide per ml) and several wash steps, the amount of ATF which had bound to the uPAR immobilized on the microtitre plate was determined using a biotinylated monoclonal mouse antibody against the kringle domain of ATF (No. 377, American Diagnostics, Greenwich, Conn., USA) and subsequent addition of avidin-peroxidase conjugate and 3,3′,5,5′-tetramethylbenzidine/[…] as a substrate for the peroxidase. The presence of synthetic peptides which compete with the ATF binding to uPAR reduces the conversion of the chromogenic substrate.
A series of peptides with variable sequence regions from the receptor binding region of uPA were synthesized and were increasingly shortened at the amino terminus starting with uPA10-32. The microtitre plate solid phase binding test described in 1.4 was used to determine the inhibitory capacity of these peptides.

In data set [1] the target is T2, cell surface-associated uPAR (Homo sapiens, UniProt Q03405).
T2 construct: source of cellular native uPAR; endogenous in cells; host or cells: U937 cells stimulated with PMA
The experiment in a line: Flow cytometry: inhibition of binding of FITC-conjugated pro-uPA to cell surface-associated uPAR on PMA-stimulated U937 cells. The procedure: The ability of the synthetic peptides to inhibit the uPA/uPAR interaction was determined by means of flow cytometry on a FACScan flow cytometer (Becton-Dickinson, Heidelberg, Germany) using the human promyeloid cell line U937 as a source of cellular native uPAR (Chuchulowski et al., Fibrinolysis 6, Suppl. 4 (1992), 95-102; Magdolen et al., (1996), supra). The U937 cells were stimulated with […] phorbol-12-myristate-13-acetate (PMA) for 48 h. After stimulation with PMA the U937 cells expressed considerable amounts of cell surface-associated uPAR.
The stimulated cells were treated for 1 min at room temperature with 50 mM glycine HCl, 0.1 NaCl, pH 3.6 in order to dissociate endogenous receptor-bound uPA. Subsequently the acidic buffer was neutralized with 0.5 M HEPES-100 mM NaCl, pH 7.5. […] Before the analysis, propidium iodide, a fluorescent dye which specifically binds double-stranded DNA, was added to each sample in order to determine the viability of the analysed U937 cells. […]
For this the purified peptides were analysed by mass spectroscopy, quantified by amino acid analysis and then tested by flow cytometry according to the method described in 1.3 for their ability to inhibit the binding of fluorescent-labelled pro-uPA to the uPA receptor on U937 cells. […]
For orientation: In flow cytometry, cells or beads pass a laser one at a time.

Data set [2] deals with human breast cancer cells MDA-MB-231. The experiment in a line: Primary tumour growth of MDA-MB-231 cells injected into naked mice. Type of data set: in vivo, Balbc/3 naked mice. The conditions noted are these: 10 mg/kg intraperitoneally twice weekly. The procedure:
6×10^6 human breast cancer cells MDA-MB-231 (Price et al., Cancer Res. 50 (1990), 717-721) in a total volume of 300 μl were injected into the right side of 4-6 week old Balbc/3 naked mice. Before injection the cancer cells were mixed with 200 μg of the cyclic uPA peptides cyclo^19,31uPA19-31 (SEQ ID NO: 3) and Cyclo^21,29[Cys21,29]uPA21-30 (SEQ ID NO: 4) in PBS, pH 7.4. Subsequently the mice were treated twice weekly intraperitoneally with the respective peptide at a dose of 10 mg/kg body weight (injection volume 300 μl). The volume of the primary tumours which occurred in the mice in cm^3 was determined after 1, 2, 3 and 5 weeks by measuring the two largest diameters. The control mice were administered PBS pH 7.4. Each group was composed of 5 mice. The results for the peptide cyclo^19,31uPA19-31 (SEQ ID NO: 3) are shown in Tab. 2.

Data set [3] is described as follows: Stability of binding activity after long storage in aqueous solution or repeated freeze/thaw cycles. The class given is physicochemical.

T1 sequence (Q03405 23-299 limits assumed): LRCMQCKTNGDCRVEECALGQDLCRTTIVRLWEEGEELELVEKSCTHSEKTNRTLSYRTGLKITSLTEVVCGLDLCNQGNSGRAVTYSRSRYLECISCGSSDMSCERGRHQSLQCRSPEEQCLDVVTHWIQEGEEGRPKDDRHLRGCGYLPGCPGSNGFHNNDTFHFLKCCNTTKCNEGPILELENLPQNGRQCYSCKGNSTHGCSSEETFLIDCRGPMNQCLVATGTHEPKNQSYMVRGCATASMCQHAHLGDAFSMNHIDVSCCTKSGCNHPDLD
T2 sequence (Q03405 23-305): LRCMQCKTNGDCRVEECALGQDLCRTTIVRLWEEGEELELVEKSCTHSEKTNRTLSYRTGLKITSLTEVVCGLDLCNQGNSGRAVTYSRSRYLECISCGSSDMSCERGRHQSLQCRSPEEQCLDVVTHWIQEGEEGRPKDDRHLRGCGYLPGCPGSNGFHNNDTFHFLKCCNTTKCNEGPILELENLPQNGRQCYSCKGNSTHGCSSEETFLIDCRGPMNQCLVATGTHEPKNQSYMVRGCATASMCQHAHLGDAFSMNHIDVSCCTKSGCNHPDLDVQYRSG

For `CC[C@H](C)[C@H](NC(=O)[C@H](CC(N)=O)NC(=O)[C@H](CO)NC(=O)[C@H](Cc1ccccc1)NC(=O)[C@H](Cc1ccc(O)cc1)NC(=O)[C@H](CCCCN)NC(=O)[C@H](CC(N)=O)NC(=O)[C@H](CO)NC(=O)[C@@H](NC(=O)[C@@H](N)CS)C(C)C)C(=O)N[C@@H](Cc1c[nH]cn1)C(=O)N[C@@H](Cc1c[nH]c2ccccc12)C(=O)N[C@@H](CS)C(=O)O` [uPA19-31] (H-CVSNKYFSNIHWC-OH; N-terminus and C-terminus assumed), at recombinant human uPAR, the “inhibition of the binding of ATF to uPAR / uPAR binding capacity” value (“inhibition … to uPAR / uPAR binding capacity” below) is “higher affinity than the longer peptide uPA16-32”.

In the case of `CC[C@H](C)[C@H](NC(=O)[C@H](CC(N)=O)NC(=O)[C@H](CO)NC(=O)[C@H](Cc1ccccc1)NC(=O)[C@H](Cc1ccc(O)cc1)NC(=O)[C@H](CCCCN)NC(=O)[C@H](CC(N)=O)NC(=O)[C@H](CO)NC(=O)[C@@H](NC(=O)[C@H](CS)NC(=O)[C@@H](NC(=O)CNC(=O)CN)[C@@H](C)O)C(C)C)C(=O)N[C@@H](Cc1c[nH]cn1)C(=O)N[C@@H](Cc1c[nH]c2ccccc12)C(=O)N[C@@H](CS)C(=O)N[C@@H](CC(N)=O)C(=O)O` [uPA16-32] (H-GGTCVSNKYFSNIHWCN-OH; N-terminus assumed), in data set [1], the “fold higher affinity to uPAR compared to uPA12-32 [C19A] and clone 20 peptide” value is 4- to 5 fold. For the same compound, in data set [1] (FITC-conjugated pro-uPA), the “molar excess resulting in a 50% inhibition of the binding of uPA” value is “approximately 3,000 molar excess”. Moreover, at recombinant human uPAR, the “inhibition … to uPAR / uPAR binding capacity” value is recorded as “effectively inhibit”.

For the compound “cyclo^19-31uPA19-31: cyclic peptide uPA19-31 with an intramolecular disulfide bond between the cysteine residues at positions 19 and 31 (CVSNKYFSNIHWC; disulfide 1-13)”, the “volume of the primary tumours” value is given as 0 cm^3 in data set [2] (week 1); 0.086 ± 0.047 cm^3 in data set [2] (week 2); 0.303 ± 0.129 cm^3 in data set [2] (week 3); 0.62 ± 0.21* cm^3 in data set [2] (week 5, p = 0.02). Besides, the “inhibition … to uPAR / uPAR binding capacity” value in the data set with recombinant human uPAR was “still able to inhibit the binding of uPA to the uPA receptor”. Further, in data set [3], the “stability of binding activity compared with linear peptide uPA19-31” value is “significantly more stable”.

With “uPA12-31: linear peptide from the receptor binding region of uPA, amino acids 12-31 as printed (DCLNGGTCVSNKYFSNIHWC)”, the “inhibition … to uPAR / uPAR binding capacity” value with recombinant human uPAR is given as “effectively inhibit”.

With “uPA14-32: linear peptide from the receptor binding region of uPA, amino acids 14-32 (LNGGTCVSNKYFSNIHWCN)”, in the data set with recombinant human uPAR, the “inhibition … to uPAR / uPAR binding capacity” value is on record as “effectively inhibit”.

On to “uPA20-34: linear peptide from the receptor binding region of uPA, amino acids 20-34 (VSNKYFSNIHWCNCP)”, for which, in the data set with recombinant human uPAR, the “inhibition … to uPAR / uPAR binding capacity” value is listed as “does not bind at all”.

Consider “uPA10-32: linear peptide from the receptor binding region of uPA, amino acids 10-32 (NCDCLNGGTCVSNKYFSNIHWCN)”, for which the “inhibition … to uPAR / uPAR binding capacity” value in the data set with recombinant human uPAR is “effectively inhibit”.

The record behind these values is US6872702B1, “Inhibitors for urokinase receptor” (Wilex AG, priority 1997, dated 2005).
